Legend:
[1] = tested on: A549-ACE2 infected with SARS-CoV-2; experiment: cell count relative to DMSO; higher = less toxic; details: 24 h
[2] = tested on: A549-ACE2; experiment: phospholipidosis EC50; higher = less potent phospholipidosis inducer
[3] = tested on: U2OS; experiment: cell viability relative to DMSO; higher = less toxic; details: 72 h
[4] = tested on: Vero E6; experiment: as above; details: 72 h
[5] = tested on: HepG2; experiment: as above; details: 72 h
[6] = tested on: Calu-3; experiment: as above; details: 72 h
[7] = tested on: Caco-2; experiment: as above; details: 72 h
[8] = tested on: U2OS; experiment: drug sensitivity score (DSS) for viability; higher = more toxic; extreme values may be limits of the assay; details: 72 h
[9] = tested on: Vero E6; experiment: as above; details: 72 h
[10] = tested on: HepG2; experiment: as above; details: 72 h
[11] = tested on: Calu-3; experiment: as above; details: 72 h
[12] = tested on: Caco-2; experiment: as above; details: 72 h
[13] = tested on: A549-ACE2; experiment: drug-induced phospholipidosis relative to tamoxifen; higher = more phospholipidosis
[14] = tested on: Vero E6; experiment: relative viability EC50 (midpoint between 100% and the lowest measured viability); higher = less toxic; details: 72 h
[15] = tested on: HepG2; experiment: as above; details: 72 h
[16] = tested on: Calu-3; experiment: as above; details: 72 h
[17] = tested on: A549-ACE2 infected with SARS-CoV-2; experiment: morphology score (similarity to uninfected cells); higher = more like uninfected cells; details: 24 h
[18] = tested on: A549-ACE2 infected with SARS-CoV-2; experiment: SARS-CoV-2 infection rate relative to DMSO; higher = more infection; details: 24 h
[19] = tested on: U2OS; experiment: relative viability EC50 (midpoint between 100% and the lowest measured viability); higher = less toxic; details: 72 h

CCN(CC)CC1CCN(c2ncc3ncnc(Nc4ccc(F)c(Cl)c4)c3n2)CC1 [BIBU-1361]
Details	SARS-CoV-2 infection rate [%]	cell count [%]	cell viability [%]	morphology score	phospholipidosis EC50 [µM]
[1], 0.3 µM	–	105	–	–	–
[1], 3 µM	–	117	–	–	–
[1], 10 µM	–	122	–	–	–
[1], 30 µM	–	72	–	–	–
[2], 24 h	–	–	–	–	3.2
[2], 48 h	–	–	–	–	3.88
[2], 72 h	–	–	–	–	3.9
[3], 1 nM	–	–	100	–	–
[3], 10 nM	–	–	104	–	–
[3], 100 nM	–	–	101	–	–
[3], 1000 nM	–	–	96.6	–	–
[3], 10000 nM	–	–	57.3	–	–
[4], 1 nM	–	–	97.3	–	–
[4], 10 nM	–	–	96.4	–	–
[4], 100 nM	–	–	93.1	–	–
[4], 1000 nM	–	–	63.2	–	–
[4], 10000 nM	–	–	42.9	–	–
[5], 1 nM	–	–	100	–	–
[5], 10 nM	–	–	100	–	–
[5], 100 nM	–	–	106	–	–
[5], 1000 nM	–	–	90	–	–
[5], 10000 nM	–	–	40.4	–	–
[6], 1 nM	–	–	100	–	–
[6], 10 nM	–	–	100	–	–
[6], 100 nM	–	–	90.7	–	–
[6], 1000 nM	–	–	56.7	–	–
[6], 10000 nM	–	–	8.7	–	–
[7], 1 nM	–	–	98	–	–
[7], 10 nM	–	–	85.1	–	–
[7], 100 nM	–	–	103	–	–
[7], 1000 nM	–	–	74.1	–	–
[7], 10000 nM	–	–	50.3	–	–
[17], 0.3 µM	–	–	–	0.01	–
[17], 3 µM	–	–	–	0.87	–
[17], 10 µM	–	–	–	0.28	–
[17], 30 µM	–	–	–	-0.37	–
[18], 0.3 µM	98	–	–	–	–
[18], 3 µM	26	–	–	–	–
[18], 10 µM	27	–	–	–	–
[18], 30 µM	90	–	–	–	–

Details	drug sensitivity score	relative viability EC50 [µM]
[8]	2.7	–
[9]	7.8	–
[10]	4.9	–
[11]	10.1	–
[12]	5.9	–
[14]	–	0.573
[15]	–	1.89
[16]	–	1.02

drug-induced phospholipidosis [%], [13]
Details	0.3 µM	0.833333 µM	3.33333 µM	6.66667 µM	10 µM	30 µM
24 h	2.83	15.5	75.3	121	120	99.8
48 h	4.06	11.5	65.6	111	126	–
72 h	4.98	9.71	51.2	111	123	–

C1CCC(C(CC2CCCCN2)C2CCCCC2)CC1 (stereo unspecified) [perhexiline]
Details	SARS-CoV-2 infection rate [%]	cell count [%]	cell viability [%]	morphology score	phospholipidosis EC50 [µM]
[1], 0.1 µM	–	99	–	–	–
[1], 0.3 µM	–	96	–	–	–
[1], 1 µM	–	105	–	–	–
[1], 3 µM	–	123	–	–	–
[2], 24 h	–	–	–	–	0.945
[2], 48 h	–	–	–	–	2.48
[2], 72 h	–	–	–	–	4.51
[3], 1 nM	–	–	101	–	–
[3], 10 nM	–	–	103	–	–
[3], 100 nM	–	–	103	–	–
[3], 1000 nM	–	–	98.6	–	–
[3], 10000 nM	–	–	62	–	–
[4], 1 nM	–	–	106	–	–
[4], 10 nM	–	–	103	–	–
[4], 100 nM	–	–	99.5	–	–
[4], 1000 nM	–	–	95.3	–	–
[4], 10000 nM	–	–	71.1	–	–
[5], 1 nM	–	–	98.9	–	–
[5], 10 nM	–	–	99.5	–	–
[5], 100 nM	–	–	103	–	–
[5], 1000 nM	–	–	95.1	–	–
[5], 10000 nM	–	–	38.6	–	–
[6], 1 nM	–	–	108	–	–
[6], 10 nM	–	–	101	–	–
[6], 100 nM	–	–	92.6	–	–
[6], 1000 nM	–	–	101	–	–
[6], 10000 nM	–	–	1.9	–	–
[7], 1 nM	–	–	92.7	–	–
[7], 10 nM	–	–	101	–	–
[7], 100 nM	–	–	93.9	–	–
[7], 1000 nM	–	–	90.9	–	–
[7], 10000 nM	–	–	63.5	–	–
[17], 0.1 µM	–	–	–	-0.02	–
[17], 0.3 µM	–	–	–	-0.25	–
[17], 1 µM	–	–	–	0.35	–
[17], 3 µM	–	–	–	0.91	–
[18], 0.1 µM	100	–	–	–	–
[18], 0.3 µM	104	–	–	–	–
[18], 1 µM	79	–	–	–	–
[18], 3 µM	36	–	–	–	–

Details	drug sensitivity score	relative viability EC50 [µM]
[8]	2	–
[9]	2	–
[10]	4.1	–
[11]	5.4	–
[12]	2.9	–
[15]	–	2.51
[16]	–	3.24

drug-induced phospholipidosis [%], [13]
Details	0.3 µM	0.833333 µM	3.33333 µM	6.66667 µM	10 µM	30 µM
24 h	3.79	25.8	87.2	113	106	26.8
48 h	4.34	16.1	84.3	113	121	–
72 h	5.16	14.3	68.3	99.9	120	–

CCCCCC(=O)O[C@]1(C(C)=O)CC[C@H]2[C@@H]3CCC4=CC(=O)CC[C@]4(C)[C@H]3CC[C@@]21C [17-hydroxyprogesterone-caproate]
Details	SARS-CoV-2 infection rate, [18] [%]	cell count, [1] [%]	cell viability, [3] [%]	cell viability, [4] [%]	cell viability, [5] [%]	cell viability, [6] [%]	cell viability, [7] [%]	morphology score, [17]
1 nM	–	–	98.1	97.8	97.1	86.9	92.7	–
10 nM	–	–	95.7	103	96.6	99	95.9	–
100 nM	–	–	99.7	95.1	98	100	107	–
0.3 µM	95	103	–	–	–	–	–	0.25
1000 nM	–	–	99.4	95.4	97.6	88.6	92.8	–
3 µM	88	104	–	–	–	–	–	0.34
10 µM	81	106	–	–	–	–	–	0.47
10000 nM	–	–	95.9	103	94.8	99.5	64.7	–
30 µM	34	104	–	–	–	–	–	0.79

Details	drug sensitivity score	relative viability EC50 [µM]
[8]	0	–
[9]	0	–
[10]	0	–
[11]	0	–
[12]	2.8	–
[14]	–	> 10
[15]	–	> 10
[16]	–	> 10
[19]	–	> 10

drug-induced phospholipidosis [%], [13]
Details	0.3 µM	0.833333 µM	3.33333 µM	6.66667 µM	10 µM	30 µM
24 h	6.66	6.09	4.63	8.81	8.05	21.5
48 h	5.77	4.75	0.98	3.88	3.43	9.55
72 h	6.76	2.38	2.24	4.3	4.77	13.6

From the supplement of paper PMC13380429
